This is an account of results in US20060116400A1, “Oxazolidinone and/or isoxazoline derivatives as antibacterial agents” (AstraZeneca AB, priority 2002, published 2006).

Converted amounts (≈) assume the structure as drawn.

Data set [1] has as its system Staphylococcus aureus MRQR. Briefly: MIC, standard in-vitro test, agar dilution. In kind it is cell-based. The conditions noted are these: Staphylococcus aureus MRQR (methicillin resistant and quinolone resistant), 10^4 CFU/spot, 37° C., 24 hours. On the procedure:
(§1) The following results were obtained on a standard in-vitro test system The activity is described in terms of the minimum inhibitory concentration (MIC) determined by the agar-dilution technique with an inoculum size of 10^4 CFU/spot. Typically, compounds are active in the range 0.01 to 256 μg/ml.
(§2) Staphylococci were tested on agar, using an inoculum of 10^4 CFU/spot and an incubation temperature of 37° C. for 24 hours—standard test conditions for the expression of methicillin resistance.
On the technique in general: In agar dilution the substance is mixed into plates at graded concentrations.

For data set [2], the system named is Staphylococcus aureus MSQS. The data set can be described thus: MIC, standard in-vitro test, agar dilution. In kind it is cell-based. The conditions noted are these: Staphylococcus aureus MSQS (methicillin sensitive and quinolone sensitive), 10^4 CFU/spot, 37° C., 24 hours. The protocol:
as §1, §2

For data set [3], the system named is Enterococcus faecium. Briefly: MIC, standard in-vitro test, agar with 5% horse blood. It is filed as cell-based. The settings on record: agar with 5% defibrinated horse blood, 48 hours. On the procedure: as §1
(§3) Streptococci and enterococci were tested on agar supplemented with 5% defibrinated horse blood, an inoculum of 10^4 CFU/spot and an incubation temperature of 37° C. in an atmosphere of 5% carbon dioxide for 48 hours—blood is required for the growth of some of the test organisms. Fastidious Gram negative organisms were tested in Mueller-Hinton broth, supplemented with hemin and NAD, grown aerobically for 24 hours at 37° C., and with an innoculum of 5×10^4 CFU/well

For data set [4], the system named is Streptococcus pneumoniae. The data set is described as above. It is filed as cell-based. The settings on record: agar with 5% defibrinated horse blood, 10^4 CFU/spot, 37° C., 5% carbon dioxide, 48 hours. On the procedure:
as §1, §3

For data set [5], the system named is Linezolid Resistant Streptococcus pneumoniae. Described as above. In kind it is cell-based. The conditions noted are these: agar with 5% defibrinated horse blood, 48 hours. The protocol: as §1, §3
Data set [6] has as its system Moraxella catarrhalis. Briefly: MIC, fastidious Gram negative organisms in Mueller-Hinton broth. It is filed as cell-based. The settings on record: Mueller-Hinton broth with hemin and NAD, 24 hours, 37° C., 5×10^4 CFU/well. On the procedure:
as §1, §3

The subject of data set [7] is Haemophilus influenzae. The data set is described as above. It is filed as cell-based. The settings on record: Mueller-Hinton broth with hemin and NAD, 24 hours, 37° C., 5×10^4 CFU/well. On the procedure: as §1, §3
The target in data set [8] is T1, MAO-A (Homo sapiens, UniProt P21397).
T1 sequence (P21397 1-527): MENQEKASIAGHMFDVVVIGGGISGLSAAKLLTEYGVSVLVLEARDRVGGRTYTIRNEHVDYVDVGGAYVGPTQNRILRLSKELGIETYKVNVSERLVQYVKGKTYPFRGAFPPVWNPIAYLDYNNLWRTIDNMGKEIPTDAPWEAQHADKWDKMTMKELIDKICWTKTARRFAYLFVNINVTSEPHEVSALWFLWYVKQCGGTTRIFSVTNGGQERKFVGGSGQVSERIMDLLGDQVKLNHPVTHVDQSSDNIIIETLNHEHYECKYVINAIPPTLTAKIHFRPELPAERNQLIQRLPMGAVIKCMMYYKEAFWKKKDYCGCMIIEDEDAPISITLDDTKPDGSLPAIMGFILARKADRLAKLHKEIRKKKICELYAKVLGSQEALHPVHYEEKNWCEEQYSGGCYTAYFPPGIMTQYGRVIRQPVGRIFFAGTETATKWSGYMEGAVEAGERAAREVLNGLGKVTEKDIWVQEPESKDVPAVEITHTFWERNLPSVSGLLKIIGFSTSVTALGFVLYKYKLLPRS
The data set can be described thus: MAO-A inhibition (Ki). In kind it is biochemical. The conditions noted are these: * = approximate values.

For the molecule `O=C1O[C@@H](Cn2ccnn2)CN1c1ccc(-c2ccc(C3=NOC(CO)(CO)C3)cc2)c(F)c1` [Example 2, (5R)-3-{4′-(5,5-bis(Hydroxymethyl)-4,5-dihydroisoxazol-3-yl]-2-fluoro-1,1′-biphenyl-4-yl}-5-(1H-1,2,3-triazol-1-ylmethyl)-1,3-oxazolidin-2-one], the MIC stood at 0.5 µg/mL (≈ 1.07 µM) in [1]; 0.5 µg/mL (≈ 1.07 µM) in data set [2]; 0.25 µg/mL (≈ 0.535 µM) in [3]; 0.13 µg/mL (≈ 0.278 µM) in data set [4]; 1 µg/mL (≈ 2.14 µM) in data set [5]; 0.5 µg/mL (≈ 1.07 µM) in data set [6]. This molecule registered an MIC in data set [7] of 4 µg/mL (≈ 8.56 µM).

For `O=C1O[C@@H](Cn2ccnn2)CN1c1ccc(-c2ccc(C3=NO[C@@H]([C@H](O)CO)C3)nc2)c(F)c1` [Example 52, (5R)-3-[4-(6-{(5R)-5-[(1R)-1,2-Dihydroxyethyl]-4,5-dihydroisoxazol-3-yl}pyridin-3-yl)-3-fluorophenyl]-5-(1H-1,2,3-triazol-ylmethyl)-1,3-oxazolidin-2-one], the Ki (usually a measure of affinity in units of concentration, obtained from inhibition or displacement) in data set [8] is around 35 µM.

Regarding `O=C1O[C@@H](Cn2ccnn2)CN1c1ccc(-c2ccc(C3=NO[C@@H]([C@@H](O)CO)C3)nc2)c(F)c1` [Example 54, (5R)-3-[4-(6-{(5R)S-5-[(1S)-1,2-Dihydroxyethyl]-4,5-dihydroisoxazol-3-yl}pyridin-3-yl)-3-fluorophenyl]-5-(1H-1,2,3-triazol-1-ylmethyl)-1,3-oxazolidin-2-one], in data set [8], the Ki worked out at 8 µM.

The molecule `O=C1O[C@@H](Cn2ccnn2)CN1c1ccc(-c2ccc(C3=NO[C@H]([C@@H](O)CO)C3)nc2)c(F)c1` [Example 53, (5R)-3-[4-(6-{(5S)-[(1S)-1,2-Dihydroxyethyl]-4,5-dihydroisoxazol-3-yl}pyridin-3-yl)-3-fluorophenyl]-5-(1H-1,2,3-triazol-1-ylmethyl)-1,3-oxazolidin-2-one] returned a Ki in data set [8] of 60 µM.

For the molecule `O=C1O[C@@H](Cn2ccnn2)CN1c1ccc(-c2ccc(C3=NO[C@H]([C@H](O)CO)C3)nc2)c(F)c1` [Example 51, (5R)-3-[4-(6-{(5S)-5-[(1R)-1,2-Dihydroxyethyl]-4,5-dihydroisoxazol-3-yl}pyridin-3-yl)-3-fluorophenyl]-5-(1H-1,2,3-triazol-1-ylmethyl)-1,3-oxazolidin-2-one], the Ki in data set [8] is around 60 µM.

With `O=C1O[C@@H](Cn2ccnn2)CN1c1ccc(-c2ccc(C3=NOC(CS(=O)(=O)CCc4ccncc4)C3)nc2)c(F)c1` (stereo partly drawn) [Example 35, (5R)-3-{3-Fluoro-4-[6-(5-{[(2-pyridin-4-ylethyl)sulfonyl]methyl}-4,5-dihydroisoxazol-3-yl)pyridin-3-yl]phenyl}-5-(1H-1,2,3-triazol-1-ylmethyl)-1,3-oxazolidin-2-one], the melting point (in general, the temperature, or range, at which the solid turns liquid) amounted to 195 °C.

`O=C1O[C@@H](Cn2ccnn2)CN1c1ccc(-c2ccc(C3=NOC(CNCCc4ccncc4)C3)nc2)c(F)c1` (stereo partly drawn) [Example 33, (5R)-3-{3-Fluoro-4-[6-(5-{[(2-pyridin-4-ylethyl)amino]methyl}-4,5-dihydroisoxazol-3-yl)pyridin-3-yl]phenyl}-5-(1H-1,2,3-triazol-1-ylmethyl)-1,3-oxazolidin-2-one] displayed a melting point of 181 °C.
